Reference: patent US10023518B2, “Substituted aromatic compounds and related method for the treatment of fibrosis” (PROMETIC BIOSCIENCES INC., priority 2013, dated 2018)
Blank lines part the entries; values can stand above or below the compound they belong to.

How the values were obtained:
[1] = test system: α-SMA mRNA expression in TGF-β induced NRK-49F cells; assay: Inhibition of α-SMA mRNA expression in TGF-β induced NRK-49F cells (quantitative real-time PCR); type: cell-based, rat; details: TGF-β 10 ng/ml
Method: In fibroblast, analysis was undertaken to determine the effect of preferred compounds of the present invention on TGF-β-induced α-SMA (marker of fibrosis) mRNA expression on normal rat kidney fibroblast (NRK-49F). NRK-49F were treated with TGF-β at a concentration of 10 ng/ml and became activated (myofibroblast) and expressed α-SMA. Expression of the profibrotic marker α-SMA was determined by quantitative real-time PCR.

db/db diabetic mouse = assay: Glomerular filtration rate in nephrectomised db/db diabetic mouse model of renal fibrosis; type: in vivo; details: db/db mice, right nephrectomy day 0, GFR on day 119
Method: FIG. 1 illustrates the glomerular filtration rate (GFR) function in db/db diabetic mouse compared to C57BL/6 mice (control mice), and in db/db diabetic mouse following oral treatment with Compound 1 at a dose of 10 and 50 mg/kg.
Typical experimental models of kidney fibrosis in mice or rats include db/db nephritic mice (models for diabetic nephropathy) and reflects the nephropathy observed in human. Evaluation of the effect of Compound 1 on diabetic nephropathy was performed in a db/db mouse model. Briefly, total nephrectomy of the right kidney was performed on day 0 and db/db mice (6-week old) were treated with vehicle or Compound 1 (10 and 50 mg/kg, oral once a day) from day 1 and glomerular filtration rate (GFR) was measured on day 119 as a direct measure of kidney function. FIG. 1 illustrates the reduction of GFR in db/db diabetic mouse compared to C57BL/6 mice (control mice), showing clearly the nephropathy associated with diabetes.

[2] = test system: collagen 1 mRNA expression in TGF-β induced HK-2 cells; assay: Inhibition of collagen 1 mRNA expression in TGF-β induced HK-2 epithelial cells (quantitative real-time PCR); type: cell-based, human; details: TGF-β 10 ng/mL; for expression of collagen in TGF-β-induced HK-2 cells (in words): concentration not given
Method: In epithelial cells, analysis was undertaken to determine the effect of compounds of the invention on TGF-β-induced collagen 1 (marker of fibrosis) on human proximal tubule epithelial cells (HK-2). HK-2 cells are immortalized proximal tubule epithelial cells, from human kidney, which were treated with TGF-β at a concentration of 10 ng/mL Expression of the profibrotic marker collagen 1 was determined by quantitative real-time PCR.

melting point: 225 to 230 °C
SMILES: CCCCCc1cc(CCCCC)cc(CC(=O)[O-])c1.[Na+] [Compound 1, Sodium 2-[3,5-Dipentylphenyl]acetate]
α-SMA expression in NRK-49F % of inhibition [mM] ([1]; 0.01 mM compound): 94% [0.01]
glomerular filtration rate (GFR) (db/db diabetic mouse; 10 mg/kg oral once a day from day 1): increases the GFR function of the kidney up to normal
glomerular filtration rate (GFR) (db/db diabetic mouse; 50 mg/kg oral once a day from day 1): increases the GFR function of the kidney up to normal
Collagen expression in HK-2 cells % of inhibition [mM] ([2]; 0.02 mM compound): 100% [0.02]
expression of collagen in TGF-β-induced HK-2 cells (in words) [2]: inhibits the expression of collagen

SMILES: CCCCCc1cc(CC(=O)[O-])cc(CCCCC)c1O.[Na+] [Compound 5, Sodium Salt of 2-(4-Hydroxy-3,5-dipentylphenyl)acetic acid]
α-SMA expression in NRK-49F % of inhibition [mM] ([1]; 0.025 mM compound): 41% [0.025]

SMILES: CCCCCCc1cc(CCCCCC)cc(CC(=O)[O-])c1.[Na+] [Compound 2, Sodium Salt of 2-(3,5-Dihexylphenyl)acetic acid]
α-SMA expression in NRK-49F % of inhibition [mM] ([1]; 0.006 mM compound): 89% [0.006]
Collagen expression in HK-2 cells % of inhibition [mM] ([2]; 0.008 mM compound): 100% [0.008]
expression of collagen in TGF-β-induced HK-2 cells (in words) [2]: inhibits the expression of collagen

SMILES: CCCCCc1cc(CCCCC)c(O)c(CC(=O)[O-])c1.[Na+] [Compound 3, Sodium Salt of 2-(2-Hydroxy-3,5-dipentylphenyl)acetic acid]
α-SMA expression in NRK-49F % of inhibition [mM] ([1]; 0.0125 mM compound): 100% [0.0125]
